Data published in the NIST ThermoML archive (doi:10.1016/j.jct.2011.04.022).
Values joined by “and” are separate entries in the source; they are usually repeats but may differ in a detail not shown here. Identical values can stand only once.

Tests used:
[1] = molar enthalpy of vaporization or sublimation; details: 298.15 K; Crystal; Second Law analysis of vapor pressure data
[2] = Crystal, Calculated from knudsen effusion weight loss

Nc1ccccc1-n1cccc1 [1-(2-aminophenyl)pyrrole]
Details	molar enthalpy [kcal/mol]
[1]	23.61

[2]
Details	vapor or sublimation pressure
296.12 K	6.43e-05 kPa and 6.33e-05 kPa and 6.58e-05 kPa
298.22 K	8.56e-05 kPa and 8.51e-05 kPa and 8.36e-05 kPa
300.2 K	0.000112 kPa and 0.000108 kPa and 0.000107 kPa
302.11 K	0.000137 kPa and 0.000144 kPa
304.19 K	0.000179 kPa and 0.000182 kPa and 0.000178 kPa
306.19 K	0.00024 kPa and 0.000228 kPa and 0.000227 kPa
308.08 K	0.000301 kPa and 0.0003 kPa and 0.000297 kPa
310.2 K	0.000388 kPa and 0.000386 kPa and 0.000377 kPa
312.2 K	0.000503 kPa and 0.000481 kPa and 0.00048 kPa
314.11 K	0.000643 kPa and 0.000635 kPa and 0.000623 kPa
316.18 K	0.000816 kPa and 0.000808 kPa and 0.000788 kPa
318.18 K	0.001059 kPa and 0.001011 kPa and 0.000991 kPa
